From PubChem BioAssay (NCI)
“And” between values parts separate entries of the source, which are not always exact repeats. Equal entries are not always repeated.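 Growth conditions: 96-well plates. Treatment: test compound, 48 hours, 5 concentrations. Analysis: linear interpolation between bracketing concentrations; unreached endpoints set to highest concentration. At the GI50, growth is halved. TGI denotes the concentration required for complete inhibition of growth.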

Experiments:
Assay in all cases: NCI tumour cell line growth inhibition, 48 h
HCT-116 colon = test system: HCT-116 colon
LOX IMVI melanoma = test system: LOX IMVI melanoma
NCI-H23 lung = test system: NCI-H23 lung
NCI-H460 lung = test system: NCI-H460 lung
OVCAR-8 ovarian = test system: OVCAR-8 ovarian
RXF 393 renal = test system: RXF 393 renal
SF-295 CNS = test system: SF-295 CNS
U251 CNS = test system: U251 CNS
SK-OV-3 ovarian = test system: SK-OV-3 ovarian
HOP-92 NSCLC = test system: HOP-92 NSCLC

Structure (SMILES) | TGI (HCT-116 colon) | TGI (LOX IMVI melanoma) | TGI (NCI-H23 lung) | TGI (NCI-H460 lung) | TGI (OVCAR-8 ovarian) | TGI (RXF 393 renal) | TGI (SF-295 CNS) | TGI (U251 CNS) | TGI (SK-OV-3 ovarian) | GI50 (HCT-116 colon) | GI50 (LOX IMVI melanoma) | GI50 (NCI-H23 lung) | GI50 (NCI-H460 lung) | GI50 (OVCAR-8 ovarian) | GI50 (RXF 393 renal) | GI50 (SF-295 CNS) | GI50 (SK-OV-3 ovarian) | GI50 (U251 CNS) | GI50 (HOP-92 NSCLC) | TGI (HOP-92 NSCLC)
CN(C)c1ccc(-c2cc(=O)c3ccccc3[nH]2)cc1 | > 100 µM | > 100 µM | > 100 µM | > 100 µM | > 100 µM | > 100 µM | > 100 µM | > 100 µM | – | – | – | – | – | – | – | – | – | – | – | –
COc1nc2c(OC)cccc2c(OC)c1C=O | > 100 µM | > 100 µM | > 100 µM | > 100 µM | > 100 µM | > 100 µM | > 100 µM | > 100 µM | > 100 µM | – | – | – | – | – | – | – | – | – | – | –
O=C1c2ccccc2-c2c1c1ccccc1c(=O)n2CCCNCCCn1c2c(c3ccccc3c1=O)C(=O)c1ccccc1-2 | > 28.9 µM | 8.25 µM | > 29.7 µM | > 17.7 µM | > 26 µM | > 29.1 µM | > 21.8 µM | 2.67 µM | 40.5 µM | 1.75 µM | 1.49 µM | 10.4 µM | 2.31 µM | 2.46 µM | 4.07 µM | 3.52 µM | 11.7 µM | 1.12 µM | – | –
O=C(CCN1CCN(c2cccc(Cl)c2)CC1)N1CCc2c([nH]c3ccccc23)C1c1cccnc1 (stereo unspecified) | 18.3 µM | 20.5 µM | 28 µM | 16.9 µM | 21.7 µM | 21 µM | – | 21.5 µM | 28.8 µM | 6.36 µM | 6.5 µM | 11.2 µM | – | – | 6.31 µM | – | 13.4 µM | 9.96 µM | 12.3 µM | 9.52 µM and 35.7 µM
O=C1NC(=O)C(C(=O)C(=O)Nc2ccc(Br)cc2)C(=O)N1 | > 100 µM | > 100 µM | > 100 µM | – | > 100 µM | > 100 µM | > 100 µM | > 100 µM | > 100 µM | – | – | – | – | – | – | – | – | – | – | > 100 µM
O=C1c2ccccc2-c2c1c1ccccc1c(=O)n2Cc1ccco1 | > 100 µM | > 100 µM | > 100 µM | – | > 100 µM | – | > 100 µM | > 100 µM | > 100 µM | – | – | – | – | – | – | – | – | – | – | > 100 µM
Oc1cccc2c1NC1=C(CCC/C1=C\c1ccccc1)C2 | > 100 µM | > 100 µM | > 100 µM | > 100 µM | > 100 µM | – | > 100 µM | > 100 µM | > 100 µM | – | – | – | – | – | – | – | – | – | – | –
O=S(=O)([O-])[O-].[OH3+].[OH3+].[OH3+].[Ru+2].c1ccccc1 | > 100 µM | – | > 100 µM | > 100 µM | > 100 µM | – | > 100 µM | > 100 µM | > 100 µM | > 100 µM | – | > 100 µM | > 100 µM | > 100 µM | – | > 100 µM | > 100 µM | > 100 µM | > 100 µM | > 100 µM
Cc1cc2c(cc1C)NC(=O)C(NC(=O)/C=C/c1ccccc1)C=N2 (stereo unspecified) | 50.8 µM | 55.3 µM | – | > 100 µM | > 100 µM | 59.7 µM | > 100 µM | 70.2 µM | > 100 µM | – | – | – | – | – | – | – | – | – | – | –
O=C1C=CC(=O)c2c1ccc1c3ccccc3n(-c3ccccn3)c21 | 25.9 µM | – | > 100 µM | > 100 µM | > 100 µM | – | > 100 µM | > 100 µM | > 100 µM | – | – | – | – | – | – | – | – | – | – | 29.9 µM
CCOC(=N)CC(=O)Nc1ccc(Cl)cc1 | > 100 µM | > 100 µM | > 100 µM | > 100 µM | > 100 µM | > 100 µM | > 100 µM | > 100 µM | > 100 µM | – | – | – | – | – | – | – | – | – | – | –
CNc1ccccc1C(=O)N/N=C/C=C/c1ccccc1 | > 100 µM | > 100 µM | > 100 µM | > 41.9 µM | > 100 µM | – | > 54.3 µM | 34.8 µM | > 100 µM | 0.499 µM | 1.34 µM | 7.93 µM | 0.503 µM | 3.41 µM | – | 1.57 µM | 4.15 µM | 1.19 µM | 4.13 µM | 57.9 µM
COc1ccc(OCC(=O)O)c2c1CCC(C(C)C)C2=O (stereo unspecified) | > 100 µM | > 100 µM | > 100 µM | > 100 µM | > 100 µM | – | > 100 µM | > 100 µM | > 100 µM | – | – | – | – | – | – | – | – | – | – | > 100 µM
CCC/C(=N\NC(=S)N1CCN(c2ccccn2)CC1)c1ccccn1 | > 3.55 µM | 3.19 µM and 1.54 µM | > 10 µM and 2.43 µM | > 4.19 µM | 0.476 µM and 1.5 µM | 2.08 µM and 1.38 µM | 6.14 µM and 1.26 µM | 0.48 µM and 1.38 µM | 2.15 µM and 2.68 µM | – | – | – | – | – | 0.0102 µM | – | 1.34 µM | – | – | –
CC(C)C(C(=O)O)N(CC1(O)OCC(O)C(O)C1O)N=O (stereo unspecified) | > 100 µM | > 100 µM | > 100 µM | > 100 µM | > 100 µM | > 100 µM | – | > 100 µM | > 100 µM | – | – | – | – | – | – | – | – | – | – | > 100 µM
CCNc1nnc(CSc2nc(-c3ccccc3)c(-c3ccccc3)[nH]2)s1 | 38.8 µM | 31.1 µM | 65.3 µM | 59.2 µM | 30 µM | – | 34.1 µM | 26.9 µM | 41.7 µM | – | – | – | – | – | – | – | – | – | – | 41.9 µM
C/C(=N\NC(=S)N1CCCCCC1)c1nccnc1C | – | > 100 µM | – | – | > 100 µM | 7.06 µM | 16.6 µM | > 100 µM | – | – | – | – | – | – | – | – | – | – | – | –
S=CN1CCCCC1 | > 100 µM | > 100 µM | > 100 µM | > 100 µM | > 100 µM | – | > 100 µM | > 100 µM | > 100 µM | – | – | – | – | – | – | – | – | – | – | –
CN(C)/[N+]([O-])=N/Oc1cc(Nc2cccc(C(=O)O)c2)c([N+](=O)[O-])cc1[N+](=O)[O-] | > 100 µM | > 100 µM | > 100 µM | > 100 µM | > 100 µM | > 100 µM | > 100 µM | > 100 µM | – | 34.5 µM | 38.5 µM | 69.5 µM | > 100 µM | > 100 µM | > 100 µM | > 100 µM | – | 35.3 µM | – | –
CCCCCCCCCCCCCS(=O)(=O)O | > 100 µM | > 100 µM | > 100 µM | > 100 µM | > 100 µM | > 100 µM | > 100 µM | > 100 µM | – | – | – | – | – | – | – | – | – | – | – | > 100 µM
CS(=O)(=O)c1ccc(Oc2cc(F)cc(C#N)c2)c2c1[C@H](O)[C@H](F)[C@@H]2F | > 100 µM | > 100 µM | > 100 µM | > 100 µM | > 100 µM | > 100 µM | > 100 µM | > 100 µM | > 100 µM | > 100 µM | > 100 µM | > 100 µM | > 100 µM | > 100 µM | > 100 µM | > 100 µM | > 100 µM | > 100 µM | – | –
CCCc1c2c([nH]c(=O)c1C)C(=O)c1[nH]c(=O)c(C)c(CCC)c1C2=O | 36.7 µM | 55.3 µM | 57.4 µM | 77.3 µM | 17.8 µM | 69.2 µM | > 100 µM | – | – | – | – | – | – | – | – | – | – | – | – | 93.8 µM
CC(O)C1OC(O)C2OC(C)(C)OC12 (stereo unspecified) | > 100 µM | > 100 µM | > 100 µM | > 100 µM | > 100 µM | – | > 100 µM | > 100 µM | > 100 µM | – | – | – | – | – | – | – | – | – | – | –
CC(C)C[C@H](NC(=O)[C@H](Cc1ccccc1)n1ccc(N2CCCCC2)cc1=O)B(O)O | 2.55 µM | – | > 100 µM | > 100 µM | > 100 µM | 0.882 µM | 4.51 µM | > 100 µM | 71.5 µM | 0.343 µM | – | 1.59 µM | 3.18 µM | 3.64 µM | 0.284 µM | 0.585 µM | 2.36 µM | 1.18 µM | 1.34 µM | 5.61 µM
CC(C(=O)N1C(=O)N(C(=O)C(C)C(O)c2ccccc2)C(c2ccccc2)C1c1ccccc1)C(O)c1ccccc1 (stereo unspecified) | 26.7 µM | 24.2 µM | > 100 µM | 19.9 µM | > 100 µM | 28.1 µM | 10.8 µM | 27.8 µM | – | – | – | – | – | – | – | – | – | – | – | 40.4 µM
CC(=O)N1CCC2(C=Nc3ccccc32)CC1 | > 100 µM | > 100 µM | > 100 µM | > 100 µM | > 100 µM | – | > 100 µM | > 100 µM | > 100 µM | – | – | – | – | – | – | – | – | – | – | > 100 µM
CC[C@@H]1C[C@@H]2CN3CCc4c([nH]c5ccc(OC)cc45)C(COC(=O)c4ccc(OC)c(OC)c4)(C2)C13 | 44 µM | 27.6 µM | 38.8 µM | 84.1 µM | > 100 µM | 62.6 µM | 70.6 µM | 43.6 µM | – | – | – | – | – | – | – | – | – | – | – | 32.2 µM
CN/N=C(/Cc1occc(=O)c1O)C(=O)Nc1ccc(C)c(C)c1 | > 100 µM | > 100 µM | > 100 µM | > 100 µM | > 100 µM | – | > 100 µM | > 100 µM | > 100 µM | – | – | – | – | – | – | – | – | – | – | > 100 µM
Cc1ccc(NC(=O)c2[nH]c(=S)nc(N)c2-c2ccccc2C)cc1C | > 100 µM | > 100 µM | > 100 µM | > 100 µM | > 100 µM | > 100 µM | – | > 100 µM | > 100 µM | – | – | – | – | – | – | – | – | – | – | > 100 µM
CN(C)CCNC(=O)c1ccc(Nc2nc3ccccc3c3occc23)cc1 | 3.02 µM | 3.66 µM | 21.3 µM | > 100 µM | 7.96 µM | – | 4.18 µM | 6.35 µM | 37.2 µM | 1.66 µM | 1.84 µM | 8.36 µM | 28.5 µM | 2.08 µM | – | 1.88 µM | 19.3 µM | 2.45 µM | 1.8 µM | 9.84 µM
